# Key:
# [1] = molecular target: T1, human SGLT1 (Homo sapiens, UniProt P13866); assay: Cell-based assay for sodium-dependent glucose transport (14C-AMG uptake), CHOK-SGLT1; settings: 10 uM compound, CHO-K1 cells stably expressing human SGLT1, Na-dependent 14C-AMG uptake; for inhibition at 10 µM: read-out: CHOK-SGLT1 % Inh (10 uM)
# T1 construct: expressed in transfected cells
# T1 sequence (P13866 1-664): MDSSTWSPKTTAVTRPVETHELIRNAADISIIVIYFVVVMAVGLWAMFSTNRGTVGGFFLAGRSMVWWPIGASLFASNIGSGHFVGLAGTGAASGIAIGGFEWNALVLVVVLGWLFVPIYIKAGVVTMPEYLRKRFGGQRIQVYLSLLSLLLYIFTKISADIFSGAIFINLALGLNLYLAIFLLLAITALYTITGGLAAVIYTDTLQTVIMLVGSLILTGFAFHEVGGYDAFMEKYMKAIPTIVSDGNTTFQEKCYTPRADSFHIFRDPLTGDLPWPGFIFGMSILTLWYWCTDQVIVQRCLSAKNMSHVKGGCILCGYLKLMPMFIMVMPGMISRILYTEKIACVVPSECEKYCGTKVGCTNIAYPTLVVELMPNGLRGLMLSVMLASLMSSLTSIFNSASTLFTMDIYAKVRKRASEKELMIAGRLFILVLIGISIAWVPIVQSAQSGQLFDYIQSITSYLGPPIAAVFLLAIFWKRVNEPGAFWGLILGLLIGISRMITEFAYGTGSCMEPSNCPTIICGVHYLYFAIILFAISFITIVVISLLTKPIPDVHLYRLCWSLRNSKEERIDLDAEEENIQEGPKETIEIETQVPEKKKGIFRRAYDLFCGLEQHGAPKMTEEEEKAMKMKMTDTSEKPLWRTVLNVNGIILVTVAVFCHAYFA
# Description: (§1) Cloning of the human SGLT1 and human SGLT2 cDNAs and construction of the mammalian expression vector: The human SGLT1 cDNA (Genbank M24847) was cloned from human small intestine. Human SGLT2 cDNA (Genbank M95549) was cloned from human kidney. Both full cDNAs were subcloned into pcDNA and sequenced to verify the integrity of the construct. Generation of CHO-K1 cells stably expressing human SGLT1 or human SGLT2: Transfection of CHO-K1 cells was performed using DMRIE-C reagent (Life Technologies, Gaithersburg, Md.). Transfectants were then selected in the presence of the antibiotic G418 (Gibco-BRL, Grand Island, N.Y.) at 400 μg/ml. Individual clones were then characterized using the functional assay described below. Cell-based assay for sodium-dependent glucose transport: Cell lines stably expressing human SGLT1 or SGLT2 were then used for functional analysis of Na^+-dependent glucose uptake. Briefly, cells were plated at a density of 65,000 cells per well in a 96-well plate and allowed to grow for 48 hours. Cells were subsequently washed one time with Assay Buffer (50 mM HEPES pH 7.4, 20 mM Tris, 5 mM KCl, 1 mM MgCl2, 1 mM CaCl2 and 137 mM NaCl) and treated with compound in the absence or presence of NaCl for 15 minutes. Cells were then labeled with ^14C-α-methylglucopyranoside (AMG, Sigma, St. Louis, Mo.), a non-metabolizable glucose analog specific for sodium-dependent glucose transporters as previously described (Peng, H. and Lever J. E. Post-transcriptional regulation of Na^+/glucose cotransporter (SGLT1) gene expression in LLC-PK1 cells. J Biol Chem 1995; 270:20536-20542.). After 2 hours the labelled cells were washed three times with ice-cold PBS. After aspiration, cells were solubilized using Microscint 20 (Packard, Meriden, Conn.) and Na-dependent ^14C-AMG uptake was quantified by measuring radioactivity. Plates were counted in a TopCount (Packard, Meriden, Conn.). Results are reported as the % inhibition or IC50 value from a representative experiment. Variability for the functional assay was typically within 20%.
# [2] = molecular target: T2, human SGLT2 (Homo sapiens, UniProt P31639); assay: Cell-based assay for sodium-dependent glucose transport (14C-AMG uptake), CHOK-SGLT2; settings: CHO-K1 cells stably expressing human SGLT2; Na-dependent 14C-AMG uptake; read-out: CHOK-SGLT2 IC50 (uM) ± SEM
# T2 construct: expressed in transfected cells
# T2 sequence (P31639 1-672): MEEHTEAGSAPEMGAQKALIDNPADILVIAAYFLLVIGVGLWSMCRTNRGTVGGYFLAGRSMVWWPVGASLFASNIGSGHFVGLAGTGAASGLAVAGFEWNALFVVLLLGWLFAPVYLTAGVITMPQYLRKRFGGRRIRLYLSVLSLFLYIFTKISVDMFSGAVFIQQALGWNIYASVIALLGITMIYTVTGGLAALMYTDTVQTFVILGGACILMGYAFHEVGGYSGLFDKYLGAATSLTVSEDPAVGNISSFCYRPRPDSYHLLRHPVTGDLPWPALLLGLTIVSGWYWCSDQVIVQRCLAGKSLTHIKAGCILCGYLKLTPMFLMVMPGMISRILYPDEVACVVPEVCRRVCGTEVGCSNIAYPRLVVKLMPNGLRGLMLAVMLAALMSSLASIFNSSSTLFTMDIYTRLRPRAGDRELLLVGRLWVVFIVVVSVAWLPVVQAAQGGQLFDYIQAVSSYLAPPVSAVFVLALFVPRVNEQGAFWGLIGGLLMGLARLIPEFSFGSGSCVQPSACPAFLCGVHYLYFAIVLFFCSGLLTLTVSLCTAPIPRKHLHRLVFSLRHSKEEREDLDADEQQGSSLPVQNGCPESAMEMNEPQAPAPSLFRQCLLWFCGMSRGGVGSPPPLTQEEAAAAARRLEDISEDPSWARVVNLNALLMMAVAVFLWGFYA
# Description: as §1, with “experiment.” for “experiment. Variability for the functional assay was typically within 20%.”
inhibition at 10 µM [1],IC50 [2],CHOK-SGLT1 % Inh (10 uM) [1],Structure (SMILES)
47%,0.754 ± 0.069 µM,–,"Cc1cc(OC2OC(CO)C(O)C(O)C2O)c2c(CCc3ccc4c(c3)CCO4)nn(C)c2c1 [Example 15, 2-{3-[2-(2,3-Dihydro-benzofuran-5-yl)-ethyl]-1,6-dimethyl-1H-indazol-4-yloxy}-β-D-glucopyranoside]"
–,3.25 ± 0.461 µM,inactive,"Cc1cc(OC2OC(CO)C(O)C(O)C2O)c2c(CCc3ccc4c(c3)CCCC4)n[nH]c2c1 [Example 5, 2-{6-Methyl-3-[2-(5,6,7,8-tetrahydro-naphthalen-2-yl)-ethyl]-1H-indazol-4-yloxy}-β-D-glucopyranoside]"
–,1.59 ± 0.025 µM,inactive,"Cc1cc(O[C@@H]2O[C@H](CO)[C@@H](O)[C@H](O)[C@H]2O)c2c(CCc3ccc4c(c3)OCCO4)n[nH]c2c1 [Example 3, 2-{3-[2-(2,3-Dihydro-benzo[1,4]dioxin-6-yl)-ethyl]-6-methyl-1H-indazol-4-yloxy}β-D-glucopyranoside]"
5%,2 ± 0.071 µM,–,"CCOc1ccc(CCc2n[nH]c3cc(C)cc(OC4OC(CO)C(O)C(O)C4O)c23)cc1 [Example 10, 2-{3-[2-(4-Ethoxy-phenyl)-ethyl]-6-methyl-1H-indazol-4-yloxy}β-D-glucopyranoside]"
48%,0.458 ± 0.061 µM,–,"Cc1cc(O[C@@H]2O[C@H](CO)[C@@H](O)[C@H](O)[C@H]2O)c2c(CCc3ccc4c(c3)CCO4)n[nH]c2c1 [Example 1, 2-{3-[2-(2,3-Dihydro-benzofuran-5-yl)-ethyl]-6-methyl-1H-indazol-4-yloxy}β3-D-glucopyranoside]"
11%,3.05 ± 0.319 µM,–,"COc1ccc(CCc2n[nH]c3cc(C)cc(OC4OC(CO)C(O)C(O)C4O)c23)cc1 [Example 9, 2-{3-[2-(4-Methoxy-phenyl)-ethyl]-6-methyl-1H-indazol-4-yloxy}β-D-glucopyranoside]"

# Reference: patent publication US7816331B2, “Substituted indazole-O-glucosides” (Janssen Pharmaceutica NV, priority 2003, dated 2010)
